Source: patent EP4585588A1, “BENZIMIDAZOLE COMPOUND, AND PREPARATION METHOD THEREFOR AND USE THEREOF” (Suzhou Pharmavan Co., Ltd., priority 2022, dated 2024)

system: myosin heavy chain β (β-MHC); details: 48 h, 10 µM
Method: Primary cardiomyocytes of suckling rats were isolated and cultured and inoculated on a cell culture plate. A drug stock solution was taken and separately added to cell wells according to a certain dilution ratio, and a final concentration was 10 µM. After half hour of drug action, a phenylephrine (PE) stock solution was added, and a final concentration of PE was 20 µM. After 48 hours of PE action, cell samples were collected for real-time quantitative PCR assay or cell area measurement.
Separation and plating of cardiomyocytes of rats: a certain number of SPF suckling rats were taken and placed in a clean bench according to an actual requirement for the number of cells, thoracic cavities were opened by scissors, hearts were separated, and the hearts were cut into tissue fragments with sterilized surgical scissors; Collagenase Type II (manufacturer: Sigma, article No.: C2-28-100MG) was added to a D-HANKS balanced salt buffer to prepare a 5 µg/mL enzyme digestion solution, and the tissue fragments of hearts were continuously digested for three times in a 37 °C constant-temperature water bath box; about 2 mL of the enzyme digestion solution was added for the first time, a supernatant was discarded after digestion, centrifugation and precipitation of cardiomyocytes and tissue fragments, about 4 mL of the enzyme digestion solution was independently added for the second time and the third time to continue digestion, a supernatant was remained each time, DMEM containing 10% FBS with the same volume as the digestion solution in the supernatant was immediately added to neutralize digestive enzymes, the supernatants for the second time and the third time were combined and centrifuged, a supernatant was discarded, an appropriate amount of DMEM containing 10% FBS was added to resuspend the cardiomyocytes, the cardiomyocytes were inoculated in a 100 mm culture plate and subjected to differential adhesion in a constant-temperature cell incubator for 2 h, and a supernatant was taken for cell count.
A 24-well plate precoated with 1% gelatin was taken and plated at 1×10^5 cells/well, 500 µL of a 10% FBS+DMEM medium was contained in each well, and cells were cultured in a 37 °C constant-temperature cell incubator for 24 h. Different compounds were independently prepared into a 100 mM mother liquor with DMSO and gradient diluted with a 10% FBS+DMEM medium to prepare a 10 µM final solution of the compound containing 0.5% DMSO. The medium in the 24-well plate was discarded and replaced with a 500 µL/well medium containing a 10 µM compound, and three replicate wells and a negative control well were set for each compound. After 0.5 hours of drug action, PE (manufacturer: Meilun Biotechnology; article No.: MB1602) with a final concentration of 20 µM was added to each well, and no PE was added to the negative control wells; after 48 hours of PE action, sample detection was performed.
Expression levels of genes related to cardiomyocyte hypertrophy was analyzed via real-time quantitative PCR detection of mRNA level of atrial natriuretic peptide (ANP) and myosin heavy chain β (β-MHC). The steps include extraction of total RNA of cells, reverse transcription synthesis of cDNA and real-time quantitative PCR assay.
Based on real-time quantitative PCR detection of an mRNA level of ANP of cardiomyocytes, a drug with a potential of anti-cardiomyocyte hypertrophy was preliminarily screened and verified with an mRNA level of another hypertrophy gene β-MHC using a statistical method One-way ANOVA and statistical software GraphPad Prism.

Going from Cc1nc2cc(-c3cc(C(=O)O)cc(F)c3O)ccc2[nH]1 [Formula I-10, 3-fluoro-4-hydroxy-5-(2-methyl-1H-benzimidazol-5-yl)benzoic acid] to Cc1nc2cc(-c3cc(CC#N)cc(F)c3O)ccc2[nH]1 [Formula I-19, 2-(3-fluoro-4-hydroxy-5-(2-methyl-1H-benzimidazol-5-yl)phenyl)acetonitrile], the “Mean (real-time quantitative PCR validation results of cardiomyocyte β-MHC)” value (“Mean” for short) rises from 1.14 to 1.26.

Compared with COC(=O)c1ccc(O)c(-c2ccc3[nH]c(C)nc3c2)c1 [Formula I-12, methyl 4-hydroxy-3-(2-methyl-1H-benzimidazol-5-yl) benzoate], COC(=O)c1cc(F)c(CO)c(-c2ccc3[nH]c(C)nc3c2)c1 [Formula II-110, methyl 3-fluoro-4-(hydroxymethyl)-5-(2-methyl-1H-benzimidazol-5-yl) benzoate] is higher in “Mean” value: 1.19 for the first, 1.34 for the second.

Compared with Cc1nc2cc(-c3cc(CC#N)ccc3O)ccc2[nH]1 [Formula I-18, 2-(4-hydroxy-3-(2-methyl-1H-benzimidazol-5-yl)phenyl)acetonitrile], CCCc1ccc(O)c(-c2ccc3[nH]c(C)nc3c2)c1 [Formula I-21, 2-(2-methyl-1H-benzimidazol-5-yl)-4-propylphenol] is lower in “Mean” value: 1.18 for the first, 1.05 for the second.

Going from NC(=O)c1ccc(O)c(-c2ccc3[nH]cnc3c2)c1 [Formula I-27, 4-hydroxy-3-(1H-benzimidazol-5-yl)benzamide] to O=C(O)c1ccc(O)c(-c2ccc3[nH]cnc3c2)c1 [Formula I-33, 4-hydroxy-3-(1H-benzimidazol-5-yl)benzoic acid], the “Mean” value falls from 1.27 to 1.22.

Going from NC(=O)c1cc(F)c(O)c(-c2ccc3[nH]cnc3c2)c1 [Formula I-28, 3-fluoro-4-hydroxy-5-(1H-benzimidazol-5-yl)benzamide] to CN(C)C(=O)c1cc(F)c(O)c(-c2ccc3[nH]cnc3c2)c1 [Formula I-31, 3-fluoro-4-hydroxy-N,N-dimethyl-5-(1H-benzimidazol-5-yl)benzamide], the “Mean” value rises from 1.07 to 1.29.

Compared with COC(=O)c1cc(C#N)c(O)c(-c2ccc3[nH]cnc3c2)c1 [Formula I-38, methyl 3-cyano-4-hydroxy-5-(1H-benzimidazol-5-yl) benzoate], CC(O)c1c(C#N)cc(C(N)=O)cc1-c1ccc2[nH]cnc2c1 (stereo not drawn) [Formula II-78, 3-cyano-4-(1-hydroxyethyl)-5-(1H-benzimidazol-5-yl)benzamide] is higher in “Mean” value: 1.26 for the first, 1.35 for the second.

Compared with C=CCc1cc(F)c(O)c(-c2ccc3[nH]cnc3c2)c1 [Formula I-40, 4-allyl-2-(1H-benzimidazol-5-yl)-6-fluorophenol], C=CCc1cc(C#N)c(O)c(-c2ccc3[nH]cnc3c2)c1 [Formula I-41, 5-allyl-3-(1H-benzimidazol-5-yl)-2-hydroxybenzonitrile] is higher in “Mean” value: 1.28 for the first, 1.37 for the second.

Compared with CCCc1ccc(O)c(-c2ccc3[nH]cnc3c2)c1 [Formula I-45, 2-(1H-benzimidazol-5-yl)-4-propylphenol], CCCc1ccc(CO)c(-c2ccc3[nH]cnc3c2)c1 [Formula II-142, (2-(1H-benzimidazol-5-yl)-4-propylphenyl)methanol] is higher in “Mean” value: 1.39 for the first, 1.40 for the second.

Going from Cc1nc2cc(-c3cc(C(=O)N(C)C)cc(C#N)c3C(C)(C)O)ccc2[nH]1 [Formula II-9, 3-cyano-4-(2-hydroxypropan-2-yl)-N,N-dimethyl-5-(2-methyl-1H-benzimidazol-5-yl)benzamide] to Cc1nc2cc(-c3cc(C(=O)N(C)C)cc(C#N)c3C(C)O)ccc2[nH]1 (stereo not drawn) [Formula II-57, 3-cyano-4-(1-hydroxyethyl)-N,N-dimethyl-5-(2-methyl-1H-benzimidazol-5-yl)benzamide], the “Mean” value rises from 1.18 to 1.26.

Compared with Cc1nc2cc(-c3cc(C(=O)O)ccc3C(C)(C)O)ccc2[nH]1 [Formula II-10, 4-(2-hydroxypropan-2-yl)-3-(2-methyl-1H-benzimidazol-5-yl)benzoic acid], Cc1nc2cc(-c3cc(F)ccc3C(C)O)ccc2[nH]1 (stereo not drawn) [Formula II-49, 1-(4-fluoro-2-(2-methyl-1H-benzimidazol-5-yl)phenyl)ethane-1-ol] is higher in “Mean” value: 1.27 for the first, 1.36 for the second.

First: C=CCc1cc(F)c(C(C)(C)O)c(-c2ccc3[nH]c(C)nc3c2)c1 [Formula II-17, 2-(4-allyl-2-fluoro-6-(2-methyl-1H-benzimidazol-5-yl)phenyl)propane-2-ol]
Second: C=CCc1cc(C#N)c(C(C)(C)O)c(-c2ccc3[nH]c(C)nc3c2)c1 [Formula II-18, 5-allyl-2-(2-hydroxypropan-2-yl)-3-(2-methyl-1H-benzimidazol-5-yl)benzonitrile]
The “Mean” value of the first is lower: 1.13 for the first, 1.19 for the second.

Going from CC(C)(O)c1ccc(F)cc1-c1ccc2[nH]cnc2c1 [Formula II-25, 2-(4-fluoro-2-(1H-benzimidazol-5-yl)phenyl)propane-2-ol] to CC(C)(O)c1ccc(CC#N)cc1-c1ccc2[nH]cnc2c1 [Formula II-43, 2-(4-(2-hydroxypropan-2-yl)-3-(1H-benzimidazol-5-yl)phenyl)acetonitrile], the “Mean” value falls from 1.52 to 1.21.

First: CC(C)(O)c1c(F)cc(F)cc1-c1ccc2[nH]cnc2c1 [Formula II-26, 2-(2,4-difluoro-6-(1H-benzimidazol-5-yl)phenyl)propane-2-ol]
Second: C=CCc1cc(C#N)c(C(C)(C)O)c(-c2ccc3[nH]cnc3c2)c1 [Formula II-42, 5-allyl-2-(2-hydroxypropan-2-yl)-3-(1H-benzimidazol-5-yl)benzonitrile]
The “Mean” value of the first is lower: 1.42 for the first, 1.48 for the second.

Going from CC(C)(O)c1c(C#N)cc(C(N)=O)cc1-c1ccc2[nH]cnc2c1 [Formula II-30, 3-cyano-4-(2-hydroxypropan-2-yl)-5-(1H-benzimidazol-5-yl)benzamide] to CC(C)(O)c1c(C#N)cc(C(=O)O)cc1-c1ccc2[nH]cnc2c1 [Formula II-36, 3-cyano-4-(2-hydroxypropan-2-yl)-5-(1H-benzimidazol-5-yl)benzoic acid], the “Mean” value rises from 1.21 to 1.41.

Compared with Cc1nc2cc(-c3cc(C(N)=O)cc(C#N)c3C(C)O)ccc2[nH]1 (stereo not drawn) [Formula II-54, 3-cyano-4-(1-hydroxyethyl)-5-(2-methyl-1H-benzimidazol-5-yl)benzamide], COC(=O)c1cc(C#N)c(C(C)O)c(-c2ccc3[nH]c(C)nc3c2)c1 (stereo not drawn) [Formula II-63, methyl 3-cyano-4-(1-hydroxyethyl)-5-(2-methyl-1H-benzimidazol-5-yl) benzoate] is higher in “Mean” value: 1.28 for the first, 1.36 for the second.

Compared with C=CCc1ccc(C(C)O)c(-c2ccc3[nH]c(C)nc3c2)c1 (stereo not drawn) [Formula II-64, 1-(4-allyl-2-(2-methyl-1H-benzimidazol-5-yl)phenyl)ethane-1-ol], CC(O)c1ccc(CC#N)cc1-c1ccc2[nH]cnc2c1 (stereo not drawn) [Formula II-91, 2-(4-(1-hydroxyethyl)-3-(1H-benzimidazol-5-yl)phenyl)acetonitrile] is higher in “Mean” value: 1.22 for the first, 1.57 for the second.

First: CC(O)c1ccc(C(=O)O)cc1-c1ccc2[nH]cnc2c1 (stereo not drawn) [Formula II-82, 4-(1-hydroxyethyl)-3-(1H-benzimidazol-5-yl)benzoic acid]
Second: COC(=O)c1ccc(CO)c(-c2ccc3[nH]cnc3c2)c1 [Formula II-133, methyl 4-(hydroxymethyl)-3-(1H-benzimidazol-5-yl) benzoate]
The “Mean” value of the first is lower: 1.15 for the first, 1.46 for the second.

Compared with C=CCc1cc(C#N)c(C(C)O)c(-c2ccc3[nH]cnc3c2)c1 (stereo not drawn) [Formula II-90, 5-allyl-2-(1-hydroxyethyl)-3-(1H-benzimidazol-5-yl)benzonitrile], CCCc1cc(F)c(C(C)O)c(-c2ccc3[nH]cnc3c2)c1 (stereo not drawn) [Formula II-95, 1-(2-fluoro-6-(1H-benzimidazol-5-yl)-4-propylphenyl)ethane-1-ol] is lower in “Mean” value: 1.27 for the first, 1.24 for the second.

Compared with Cc1nc2cc(-c3cc(C(N)=O)cc(C#N)c3CO)ccc2[nH]1 [Formula II-102, 3-cyano-4-(hydroxymethyl)-5-(2-methyl-1H-benzimidazol-5-yl)benzamide], CCCc1cc(C#N)c(CO)c(-c2ccc3[nH]c(C)nc3c2)c1 [Formula II-120, 2-(hydroxymethyl)-3-(2-methyl-1H-benzimidazol-5-yl)-5-propylbenzonitrile] is higher in “Mean” value: 1.28 for the first, 1.45 for the second.

Compared with Cc1nc2cc(-c3cc(C(=O)N(C)C)cc(F)c3CO)ccc2[nH]1 [Formula II-104, 3-fluoro-4-(hydroxymethyl)-N,N-dimethyl-5-(2-methyl-1H-benzimidazol-5-yl)benzamide], CN(C)C(=O)c1cc(F)c(CO)c(-c2ccc3[nH]cnc3c2)c1 [Formula II-128, 3-fluoro-4-(hydroxymethyl)-N,N-dimethyl-5-(1H-benzimidazol-5-yl)benzamide] is higher in “Mean” value: 1.25 for the first, 1.27 for the second.

Going from Cc1nc2cc(-c3cc(CC#N)cc(F)c3CO)ccc2[nH]1 [Formula II-116, 2-(3-fluoro-4-(hydroxymethyl)-5-(2-methyl-1H-benzimidazol-5-yl)phenyl)acetonitrile] to CN(C)C(=O)c1cc(C#N)c(CO)c(-c2ccc3[nH]cnc3c2)c1 [Formula II-129, 3-cyano-4-(hydroxymethyl)-N,N-dimethyl-5-(1H-benzimidazol-5-yl)benzamide], the “Mean” value falls from 1.58 to 1.34.
